# Measured values from US8586747B2, “3,3-dimethyl tetrahydroquinoline derivatives” (Hoffmann-La Roche Inc., priority 2010, dated 2013).
# Test system: AMP-activated protein kinase (AMPK)
# Assay: ADP Quest assay for AMPK activators
# Assay type: biochemical
# Design: key: fold AMPK activation with vs without activator at 30 µM
# Conditions: fold of AMPK activation to phosphorylate SAMS peptide without and with an activator at the concentration of 30 µM
# How it was run: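 E30, the fold increase in SAMS peptide phosphorylation at 30 µM compound relative to no activator, is derived from kinetic fluorescent detection of ADP (ex 530, em 590 nm). AMPK starts the ATP-containing reaction at room temperature; compounds span […] by 2-fold steps, AMP serves as reference.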
row,E30,Structure (SMILES)
1,1.32,"CC1(C)Cc2c(cc(F)cc2C(=O)O)NC1c1cccc(N2CCOCC2)c1 (centres unmarked) [Example 134, 7-Fluoro-3,3-dimethyl-2-(3-morpholin-4-yl-phenyl)-1,2,3,4-tetrahydro-quinoline-5-carboxylic acid]"
2,1.31,"CC1(C)Cc2c(cc(F)cc2C(=O)NS(C)(=O)=O)NC1c1cccc(N2CCOCC2)c1 (centres unmarked) [Example 135, N-[7-Fluoro-3,3-dimethyl-2-(3-morpholin-4-yl-phenyl)-1,2,3,4-tetrahydro-quinoline-5-carbonyl]-methanesulfonamide]"
3,1.3,"CC1(C)Cc2cc(C(=O)O)ccc2NC1c1cccc(-n2cnc3c(c2=O)CCN(Cc2ccccc2)C3)c1 (centres unmarked) [Example 136, 2-[3-(7-Benzyl-4-oxo-5,6,7,8-tetrahydro-4H-pyrido[3,4-d]pyrimidin-3-yl)-phenyl]-3,3-dimethyl-1,2,3,4-tetrahydro-quinoline-6-carboxylic acid]"
4,1.26,"CC1(C)Cc2ccc(C(=O)O)c(F)c2NC1c1cccc(N2CCOCC2)c1 (centres unmarked) [Example 137, 8-Fluoro-3,3-dimethyl-2-(3-morpholin-4-yl-phenyl)-1,2,3,4-tetrahydro-quinoline-7-carboxylic acid]"
5,1.21,"CC1(C)Cc2c(cc(F)cc2C(=O)NS(=O)(=O)C2CC2)NC1c1cccc(N2CCOCC2)c1 (centres unmarked) [Example 138, Cyclopropanesulfonic acid [7-fluoro-3,3-dimethyl-2-(3-morpholin-4-yl-phenyl)-1,2,3,4-tetrahydro-quinoline-5-carbonyl]-amide]"
6,1.38,"CN1CCN(c2cccc(C3Nc4c(cc(Cl)cc4C(=O)NS(=O)(=O)C4CC4)CC3(C)C)c2)CC1 (centres unmarked) [Example 139, Cyclopropanesulfonic acid {6-chloro-3,3-dimethyl-2-[3-(4-methyl-piperazin-1-yl)-phenyl]-1,2,3,4-tetrahydro-quinoline-8-carbonyl}-amide]"
7,1.34,"CC(C)c1ccc(-c2cccc(C3Nc4c(cc(Cl)cc4C(=O)O)CC3(C)C)c2)cc1 (centres unmarked) [Example 140, 6-Chloro-2-(4′-isopropyl-biphenyl-3-yl)-3,3-dimethyl-1,2,3,4-tetrahydro-quinoline-8-carboxylic acid]"
8,1.3,"CN(C)c1ccc(-c2cccc(C3Nc4c(cc(Cl)cc4C(=O)NS(=O)(=O)C4CC4)CC3(C)C)c2)cc1 (centres unmarked) [Example 141, Cyclopropanesulfonic acid [6-chloro-2-(4′-dimethylamino-biphenyl-3-yl)-3,3-dimethyl-1,2,3,4-tetrahydro-quinoline-8-carbonyl]-amide]"
9,1.54,"CC(C)(C)c1ccc(-c2cccc(C3Nc4c(cc(Cl)cc4C(=O)O)CC3(C)C)c2)cc1 (centres unmarked) [Example 142, 2-(4′-tert-Butyl-biphenyl-3-yl)-6-chloro-3,3-dimethyl-1,2,3,4-tetrahydro-quinoline-8-carboxylic acid]"
10,1.33,"CC(C)(C)c1ccc(-c2cccc(C3Nc4c(cc(Cl)cc4C(=O)NS(=O)(=O)C4CC4)CC3(C)C)c2)cc1 (centres unmarked) [Example 143, Cyclopropanesulfonic acid [2-(4′-tert-butyl-biphenyl-3-yl)-6-chloro-3,3-dimethyl-1,2,3,4-tetrahydro-quinoline-8-carbonyl]-amide]"
11,1.25,"CC(C)(C)c1ccc(-c2cccc(C3Nc4c(cc(Cl)cc4C(=O)NS(C)(=O)=O)CC3(C)C)c2)cc1 (centres unmarked) [Example 144, N-[2-(4′-tert-Butyl-biphenyl-3-yl)-6-chloro-3,3-dimethyl-1,2,3,4-tetrahydro-quinoline-8-carbonyl]-methanesulfonamide]"
12,1.22,"CCc1nnnn1-c1cccc(C2Nc3ccc(C(=O)NS(=O)(=O)C4CC4)cc3CC2(C)C)c1 (centres unmarked) [Example 145, Cyclopropanesulfonic acid {2-[3-(5-ethyl-tetrazol-1-yl)-phenyl]-3,3-dimethyl-1,2,3,4-tetrahydro-quinoline-6-carbonyl}-amide]"
13,1.21,"CCc1nnnn1-c1cccc(C2Nc3ccc(C(=O)NS(C)(=O)=O)cc3CC2(C)C)c1 (centres unmarked) [Example 146, N-{2-[3-(5-Ethyl-tetrazol-1-yl)-phenyl]-3,3-dimethyl-1,2,3,4-tetrahydro-quinoline-6-carbonyl}-methanesulfonamide]"
14,1.35,"CC1(C)Cc2cc(C(=O)O)ccc2NC1c1cccc(-n2nnnc2Cc2ccccc2)c1 (centres unmarked) [Example 147, 2-[3-(5-Benzyl-tetrazol-1-yl)-phenyl]-3,3-dimethyl-1,2,3,4-tetrahydro-quinoline-6-carboxylic acid]"
15,1.3,"CCc1nnnn1-c1cccc(C2Nc3ccc(C(=O)O)cc3CC2(C)C)c1 (centres unmarked) [Example 148, 2-[3-(5-Ethyl-tetrazol-1-yl)-phenyl]-3,3-dimethyl-1,2,3,4-tetrahydro-quinoline-6-carboxylic acid]"
16,1.26,"CC1(C)Cc2c(cc(Cl)cc2C(=O)NS(C)(=O)=O)NC1c1cccc(N2CCOCC2)c1 (centres unmarked) [Example 149, N-[7-Chloro-3,3-dimethyl-2-(3-morpholin-4-yl-phenyl)-1,2,3,4-tetrahydro-quinoline-5-carbonyl]-methanesulfonamide]"
17,1.22,"CC1(C)Cc2c(C(=O)NS(=O)(=O)C3CC3)ccc(F)c2NC1c1cccc(N2CCOCC2)c1 (centres unmarked) [Example 150, Cyclopropanesulfonic acid [8-fluoro-3,3-dimethyl-2-(3-morpholin-4-yl-phenyl)-1,2,3,4-tetrahydro-quinoline-5-carbonyl]-amide]"
18,1.66,"CC(C)(C)c1ccc(-c2cccc(C3Nc4ccc(F)c(C(=O)O)c4CC3(C)C)c2)cc1 (centres unmarked) [Example 151, 2-(4′-tert-Butyl-biphenyl-3-yl)-6-fluoro-3,3-dimethyl-1,2,3,4-tetrahydro-quinoline-5-carboxylic acid]"
19,1.41,"Cc1ccccc1N1CCN(c2cccc(C3Nc4ccc(C(=O)O)cc4CC3(C)C)c2)CC1 (centres unmarked) [Example 152, 3,3-Dimethyl-2-[3-(4-o-tolyl-piperazin-1-yl)-phenyl]-1,2,3,4-tetrahydroquinoline-6-carboxylic acid]"
20,1.27,"CC1(C)Cc2cc(C(=O)NS(=O)(=O)C3CC3)ccc2NC1c1cccc(N2CC(F)C2)c1 (centres unmarked) [Example 153, Cyclopropanesulfonic acid {2-[3-(3-fluoro-azetidin-1-yl)-phenyl]-3,3-dimethyl-1,2,3,4-tetrahydro-quinoline-6-carbonyl}-amide]"
21,1.24,"CC1(C)Cc2cc(C(=O)NS(C)(=O)=O)ccc2NC1c1cccc(N2CC(F)C2)c1 (centres unmarked) [Example 154, N-{2-[3-(3-Fluoro-azetidin-1-yl)-phenyl]-3,3-dimethyl-1,2,3,4-tetrahydro-quinoline-6-carbonyl}-methanesulfonamide]"
22,1.19,"Cc1ccccc1N1CCN(c2cccc(C3Nc4ccc(C(=O)NS(C)(=O)=O)cc4CC3(C)C)c2)CC1 (centres unmarked) [Example 155, N-{3,3-Dimethyl-2-[3-(4-o-tolyl-piperazin-1-yl)-phenyl]-1,2,3,4-tetrahydro-quinoline-6-carbonyl}-methanesulfonamide]"
23,1.66,"CC(C)(C)c1ccc(-c2cccc(C3Nc4ccc(F)c(C(=O)NS(=O)(=O)C5CC5)c4CC3(C)C)c2)cc1 (centres unmarked) [Example 156, Cyclopropanesulfonic acid [2-(4′-tert-butyl-biphenyl-3-yl)-6-fluoro-3,3-dimethyl-1,2,3,4-tetrahydro-quinoline-5-carbonyl]-amide]"
